Laboratory results reported in ChEMBL document CHEMBL3044769, “A brief synthesis of natural antifeedant, 1-(2,4,6-trimethoxyphenyl) but-2(E)-en-1-one” (1994).

System: Spodoptera litura
Assay: Antifeedant activity in Spodoptera litura assessed as feeding ratio at 0.1% of the diet
Type: functional

C/C=C/C(=O)c1c(OC)cc(OC)cc1OC
Activity: 50.5%
